Assay results taken from PubChem BioAssay (NCI).
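All cell lines were grown in 96-well plates and treated with compound for 48 hours. GI50 marks 50% less growth. At the TGI there is no net growth.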

Legend:
Assay in all cases: NCI tumour cell line growth inhibition, 48 h
[1] = system: 786-0 renal
[2] = system: CCRF-CEM leukemia
[3] = system: HCC-2998 colon
[4] = system: HCT-116 colon
[5] = system: HOP-62 NSCLC
[6] = system: IGROV1 ovarian
[7] = system: NCI-H460 lung
[8] = system: OVCAR-3 ovarian
[9] = system: DU-145 prostate
[10] = system: MCF7 breast

| Compound | TGI [1] [µM] | TGI [2] [µM] | TGI [3] [µM] | TGI [4] [µM] | TGI [5] [µM] | TGI [6] [µM] | TGI [7] [µM] | TGI [8] [µM] | GI50 [1] [µM] | GI50 [2] [µM] | GI50 [3] [µM] | GI50 [4] [µM] | GI50 [5] [µM] | GI50 [6] [µM] | GI50 [7] [µM] | GI50 [8] [µM] | GI50 [9] [µM] | TGI [9] [µM] | GI50 [10] [µM] | TGI [10] [µM] |
| --- | --- | --- | --- | --- | --- | --- | --- | --- | --- | --- | --- | --- | --- | --- | --- | --- | --- | --- | --- | --- |
| CC1(C)C2=CCCC(=O)[C@@]2(C)CC[C@@H]1O | > 100 | > 100 | > 100 | > 100 | > 100 | > 100 | > 100 | > 100 | – | – | – | – | – | – | – | – | – | – | – | – |
| O=C(CC1(O)C(=O)Nc2c(Cl)cc(Cl)cc21)c1ccc([N+](=O)[O-])cc1 (configuration not stated) | > 100 | > 84.3 | > 100 | > 59.2 | > 100 | > 90.6 | > 100 | > 64.1 | – | – | – | – | – | – | – | – | – | – | – | – |
| CC[C@@]1(O)C(=O)OCc2c1cc1n(c2=O)Cc2cc3cccc(N)c3nc2-1 | 8.72 | > 100 | 48.1 | > 100 | 6.24 | 38.8 | 11.2 | > 100 | 2.38 | 1.07 | 16.6 | 16.8 | 2.36 | 11.5 | 1.38 | 66.8 | – | – | – | – |
| CCCCCCCCC1C(C)c2c([nH]c3ccccc23)C2C(=O)N(c3ccccc3)C(=O)C21 (configuration not stated) | 26.5 | 7.09 | 25.6 | 12.5 | 38.3 | 36.2 | 12.9 | 16.7 | – | – | – | – | – | – | – | – | – | – | – | – |
| CCOC1Oc2ccccc2C(=O)/C1=C\Nc1ccc(C(=O)O)c(O)c1 (configuration not stated) | > 100 | – | – | 35.1 | > 100 | > 100 | > 100 | 56.3 | 30.1 | – | – | 15.7 | 32.4 | 43.9 | 38.9 | 25.2 | 34.1 | > 100 | 29.9 | > 100 |
| NS(=O)(=O)c1ccc(-n2nc(-c3ccccc3)cc2-c2cc(O)ccc2O)cc1 | > 100 | > 100 | – | > 100 | > 100 | > 100 | > 100 | > 100 | 90.8 | > 100 | – | 40.8 | 90.8 | > 100 | > 100 | > 100 | – | – | 69.4 | > 100 |
| C=C(C)C1CC=C(C)C(O)([C@@]2(O)C[C@H](C(=C)C)CC=C2C)C1 (some centres not stated) | 31.3 | 46.3 | 35.7 | 40.1 | 35 | 53.4 | 34.6 | 29.6 | – | – | – | – | – | – | – | – | – | – | – | – |
| CCC1=CCC(P(=O)(c2ccccc2)c2ccccc2)CC1C (configuration not stated) | > 100 | > 100 | – | 63.8 | – | > 100 | > 100 | > 100 | – | – | – | – | – | – | – | – | – | – | – | – |
| Nc1nc(N)c(CCCCc2ccccc2)c(/C=C/c2ccc([N+](=O)[O-])cc2)n1 | 7.34 | 6.01 | 9.04 | 6.52 | 12.4 | 20.2 | 39.5 | 8.4 | – | – | – | – | – | – | – | – | – | – | – | – |
| CCN(CC)CCCNc1nccc2c(C)c3[nH]c4ccncc4c(=O)c3cc12 | 11.9 | 8.44 | 13.4 | 2.03 | 16.7 | 21.7 | 7.04 | 8.88 | – | – | – | – | – | – | – | – | – | – | – | – |
